Assay results published in PubChem BioAssay (NCI).
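Tested at 5 concentrations; 48 h exposure; 96-well plates; endpoints linearly interpolated, else capped at highest concentration. TGI is the concentration that stops growth completely.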

How the values were obtained:
Experiment in all cases: NCI tumour cell line growth inhibition, 48 h
[1] = test system: IGROV1 ovarian
[2] = test system: SR leukemia
[3] = test system: HL-60(TB) leukemia
[4] = test system: UO-31 renal
[5] = test system: BT-549 breast
[6] = test system: SF-268 CNS
[7] = test system: KM12 colon
[8] = test system: SNB-75 CNS
[9] = test system: NCI-H226 lung
[10] = test system: SK-MEL-2 melanoma
[11] = test system: SN12C renal
[12] = test system: SF-539 CNS
[13] = test system: U251 CNS
[14] = test system: HCT-116 colon
[15] = test system: HOP-92 NSCLC
[16] = test system: SK-MEL-28 melanoma
[17] = test system: COLO 205 colon
[18] = test system: SK-MEL-5 melanoma
[19] = test system: A498 renal
[20] = test system: T-47D breast
[21] = test system: SK-OV-3 ovarian
[22] = test system: UACC-62 melanoma
[23] = test system: SW-620 colon
[24] = test system: OVCAR-5 ovarian
[25] = test system: PC-3 prostate
[26] = test system: 786-0 renal
[27] = test system: RPMI-8226 leukemia
[28] = test system: M14 melanoma
[29] = test system: K-562 leukemia
[30] = test system: HS 578T breast
[31] = test system: OVCAR-8 ovarian
[32] = test system: MALME-3M melanoma
[33] = test system: DU-145 prostate
[34] = test system: OVCAR-3 ovarian
[35] = test system: SNB-19 CNS
[36] = test system: HCC-2998 colon
[37] = test system: A549 NSCLC
[38] = test system: ACHN renal
[39] = test system: MDA-MB-435
[40] = test system: EKVX NSCLC
[41] = test system: RXF 393 renal
[42] = test system: OVCAR-4 ovarian
[43] = test system: NCI-H460 lung
[44] = test system: MDA-N
[45] = test system: HOP-62 NSCLC
[46] = test system: SF-295 CNS
[47] = test system: CCRF-CEM leukemia
[48] = test system: MOLT-4 leukemia
[49] = test system: TK-10 renal
[50] = test system: MDA-MB-231 breast
[51] = test system: HT29 colon
[52] = test system: UACC-257 melanoma
[53] = test system: CAKI-1 renal
[54] = test system: NCI/ADR-RES ovarian
[55] = test system: HCT-15 colon
[56] = test system: MCF7 breast

SMILES: O=C1CCCCC1=C(I)I
- TGI [1]: 30.4 µM
- TGI [2]: > 100 µM
- TGI [3]: 26.2 µM
- TGI [4]: 30.5 µM
- TGI [5]: 26.8 µM
- TGI [6]: 57.2 µM
- TGI [7]: 28.8 µM
- TGI [8]: 47.1 µM
- TGI [9]: 42.7 µM
- TGI [10]: 31.8 µM
- TGI [11]: 55.6 µM
- TGI [12]: 36.6 µM
- TGI [13]: 30.2 µM
- TGI [14]: 30.9 µM
- TGI [15]: 29 µM
- TGI [16]: 31.8 µM
- TGI [17]: 28.8 µM
- TGI [18]: 33 µM
- TGI [19]: 35.5 µM
- TGI [20]: 28.7 µM
- TGI [21]: 56.8 µM
- TGI [22]: 33.9 µM
- TGI [23]: 31.2 µM
- TGI [24]: 31.6 µM
- TGI [25]: 30.9 µM
- TGI [26]: 31.9 µM
- TGI [27]: 53.4 µM
- TGI [28]: 32.3 µM
- TGI [29]: 95.8 µM
- TGI [30]: > 100 µM
- TGI [31]: > 100 µM
- TGI [32]: 27.5 µM
- TGI [33]: 34.1 µM
- TGI [34]: 30.3 µM
- TGI [35]: 24.9 µM
- TGI [36]: 29.5 µM
- TGI [37]: > 100 µM
- TGI [38]: 31.7 µM
- TGI [39]: 46.8 µM
- TGI [40]: 4.1 µM
- TGI [41]: 30.5 µM
- TGI [42]: 24.5 µM
- TGI [43]: 44.1 µM
- TGI [44]: 31.3 µM
- TGI [45]: 57.5 µM
- TGI [46]: 65.8 µM
- TGI [47]: 73.3 µM
- TGI [48]: 58.3 µM

SMILES: COc1ccc(C(=O)/C=C/c2ccc(OCCSCCCCCCCCCCSCCOc3ccc(/C=C/C(=O)c4ccc(OC)cc4)cc3)cc2)cc1
- TGI [1]: > 100 µM
- TGI [2]: > 100 µM
- TGI [3]: > 100 µM
- TGI [49]: > 100 µM
- TGI [4]: > 100 µM
- TGI [6]: > 100 µM
- TGI [7]: > 100 µM
- TGI [8]: > 100 µM
- TGI [9]: > 100 µM
- TGI [10]: > 100 µM
- TGI [11]: > 100 µM
- TGI [12]: > 100 µM
- TGI [13]: > 100 µM
- TGI [14]: > 100 µM
- TGI [16]: > 100 µM
- TGI [17]: > 100 µM
- TGI [18]: > 100 µM
- TGI [50]: > 100 µM
- TGI [20]: > 100 µM
- TGI [21]: > 100 µM
- TGI [22]: > 100 µM
- TGI [23]: > 100 µM
- TGI [51]: > 100 µM
- TGI [25]: > 100 µM
- TGI [26]: > 100 µM
- TGI [52]: > 100 µM
- TGI [27]: > 100 µM
- TGI [28]: > 100 µM
- TGI [53]: > 100 µM
- TGI [29]: > 100 µM
- TGI [30]: > 100 µM
- TGI [31]: > 100 µM
- TGI [54]: > 100 µM
- TGI [33]: > 100 µM
- TGI [35]: > 100 µM
- TGI [36]: > 100 µM
- TGI [37]: > 100 µM
- TGI [38]: > 100 µM
- TGI [55]: > 100 µM
- TGI [39]: > 100 µM
- TGI [40]: > 100 µM
- TGI [41]: > 100 µM
- TGI [42]: > 100 µM
- TGI [56]: > 100 µM
- TGI [43]: > 100 µM
- TGI [44]: > 100 µM
- TGI [45]: > 100 µM
- TGI [46]: > 100 µM
- TGI [47]: > 100 µM
- TGI [48]: > 100 µM
